CN1CCN(c2cc3c(cc2F)c(=O)c(C(=O)O)cn3-c2ccc(F)cc2)CC1
solubility (mole fraction)
Details | 293.15 K | 295.15 K | 298.15 K | 300.15 K | 303.15 K | 305.15 K | 308.15 K | 310.15 K | 313.15 K
in acetone | 0.0052 | 0.0058 | 0.0067 | 0.0073 | 0.0081 | 0.0087 | 0.0096 | 0.0104 | 0.011
in ethanol | 0.0387 | 0.0435 | 0.0507 | 0.0559 | 0.0636 | 0.0683 | 0.0754 | 0.0795 | 0.0856
in methanol | 0.0064 | 0.0068 | 0.0073 | 0.0077 | 0.0084 | 0.0088 | 0.0095 | 0.0099 | 0.0104

Source: BigSolDB 2.1
